Test results as given in PubChem BioAssay (NCI).
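Where inhibition never reached the appropriate level, the endpoint shown equals the highest concentration tested. Otherwise, values were interpolated linearly from a five-concentration, 48-hour dose response in 96-well plates. Here, GI50 denotes the concentration required for 50% inhibition of growth. TGI marks complete inhibition of growth.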

Assays:
Test in all cases: inhibition of tumour cell growth, NCI panel, 48 h
HCC-2998 colon = system: HCC-2998 colon
UACC-257 melanoma = system: UACC-257 melanoma
A549 NSCLC = system: A549 NSCLC
MCF7 breast = system: MCF7 breast
MDA-MB-231 breast = system: MDA-MB-231 breast
HOP-92 NSCLC = system: HOP-92 NSCLC
LOX IMVI melanoma = system: LOX IMVI melanoma
SK-MEL-2 melanoma = system: SK-MEL-2 melanoma
SN12C renal = system: SN12C renal
M14 melanoma = system: M14 melanoma
K-562 leukemia = system: K-562 leukemia
HT29 colon = system: HT29 colon
SNB-75 CNS = system: SNB-75 CNS
SNB-19 CNS = system: SNB-19 CNS
SK-OV-3 ovarian = system: SK-OV-3 ovarian
HCT-116 colon = system: HCT-116 colon
NCI/ADR-RES ovarian = system: NCI/ADR-RES ovarian
786-0 renal = system: 786-0 renal
PC-3 prostate = system: PC-3 prostate
NCI-H460 lung = system: NCI-H460 lung
CCRF-CEM leukemia = system: CCRF-CEM leukemia
NCI-H522 lung = system: NCI-H522 lung
RPMI-8226 leukemia = system: RPMI-8226 leukemia
UACC-62 melanoma = system: UACC-62 melanoma
SR leukemia = system: SR leukemia
HCT-15 colon = system: HCT-15 colon
OVCAR-4 ovarian = system: OVCAR-4 ovarian
MDA-MB-435 = system: MDA-MB-435
MOLT-4 leukemia = system: MOLT-4 leukemia
HS 578T breast = system: HS 578T breast
SK-MEL-5 melanoma = system: SK-MEL-5 melanoma
COLO 205 colon = system: COLO 205 colon
BT-549 breast = system: BT-549 breast
NCI-H226 lung = system: NCI-H226 lung
OVCAR-8 ovarian = system: OVCAR-8 ovarian
MALME-3M melanoma = system: MALME-3M melanoma
UO-31 renal = system: UO-31 renal
SW-620 colon = system: SW-620 colon
A498 renal = system: A498 renal
MDA-MB-468 breast = system: MDA-MB-468 breast
EKVX NSCLC = system: EKVX NSCLC
HL-60(TB) leukemia = system: HL-60(TB) leukemia
RXF 393 renal = system: RXF 393 renal
OVCAR-3 ovarian = system: OVCAR-3 ovarian
KM12 colon = system: KM12 colon
ACHN renal = system: ACHN renal
DU-145 prostate = system: DU-145 prostate
U251 CNS = system: U251 CNS
TK-10 renal = system: TK-10 renal
HOP-62 NSCLC = system: HOP-62 NSCLC
SF-295 CNS = system: SF-295 CNS
IGROV1 ovarian = system: IGROV1 ovarian
CAKI-1 renal = system: CAKI-1 renal
NCI-H23 lung = system: NCI-H23 lung
SK-MEL-28 melanoma = system: SK-MEL-28 melanoma
SF-539 CNS = system: SF-539 CNS
OVCAR-5 ovarian = system: OVCAR-5 ovarian
SF-268 CNS = system: SF-268 CNS
T-47D breast = system: T-47D breast

For `O=C(Cc1ccc2c(c1)CN(C1CCC(=O)NC1=O)C2=O)NCc1cccc2ccccc12` (configuration not stated), the GI50 (HCC-2998 colon) was less than 10 nM, the TGI (HCC-2998 colon) was less than 10 nM and the GI50 (UACC-257 melanoma) was 350 nM. For the same compound, the TGI (UACC-257 melanoma) was greater than 100 µM, the GI50 (A549 NSCLC) was 14.6 nM and the TGI (A549 NSCLC) was greater than 100 µM. The GI50 (MCF7 breast) was less than 10 nM, the TGI (MCF7 breast) was greater than 33.3 µM and the GI50 (MDA-MB-231 breast) was less than 10 nM. It also gave a TGI (MDA-MB-231 breast) of less than 10 nM, a GI50 (HOP-92 NSCLC) of less than 10 nM and a TGI (HOP-92 NSCLC) of less than 10 nM. For the same compound, the GI50 (LOX IMVI melanoma) was 41.5 nM, the TGI (LOX IMVI melanoma) was 2510 nM and the GI50 (SK-MEL-2 melanoma) was less than 10 nM. The TGI (SK-MEL-2 melanoma) was 19.2 nM, the GI50 (SN12C renal) was less than 10 nM and the TGI (SN12C renal) was 88.2 nM. It also gave a GI50 (M14 melanoma) of less than 10 nM, a TGI (M14 melanoma) of 33.4 nM and a GI50 (K-562 leukemia) of less than 10 nM. The TGI (K-562 leukemia) was greater than 100 µM, the GI50 (HT29 colon) was 10.2 nM and the TGI (HT29 colon) was 108 nM. For the same compound, the GI50 (SNB-75 CNS) was less than 10 nM, the TGI (SNB-75 CNS) was less than 12 nM and the GI50 (SNB-19 CNS) was less than 10 nM. It also gave a TGI (SNB-19 CNS) of 74.2 nM, a GI50 (SK-OV-3 ovarian) of less than 10 nM and a TGI (SK-OV-3 ovarian) of 147 nM. For the same compound, the GI50 (HCT-116 colon) was 54.6 nM, the TGI (HCT-116 colon) was greater than 100 µM and the GI50 (NCI/ADR-RES ovarian) was 300 nM. For the same compound, the TGI (NCI/ADR-RES ovarian) was 3.08 µM, the GI50 (786-0 renal) was less than 10 nM and the GI50 (PC-3 prostate) was less than 10 nM. It also gave a TGI (PC-3 prostate) of 177 nM, a GI50 (NCI-H460 lung) of 5.17 µM and a TGI (NCI-H460 lung) greater than 100 µM. For the same compound, the GI50 (CCRF-CEM leukemia) was less than 10 nM, the TGI (CCRF-CEM leukemia) was 105 nM and the GI50 (NCI-H522 lung) was 29.1 nM. It also gave a TGI (NCI-H522 lung) of 351 nM, a GI50 (RPMI-8226 leukemia) of less than 11.3 nM and a TGI (RPMI-8226 leukemia) greater than 100 µM. For the same compound, the GI50 (UACC-62 melanoma) was 40.3 nM, the TGI (UACC-62 melanoma) was 1420 nM and the GI50 (SR leukemia) was 92.9 nM. It also gave a TGI (SR leukemia) greater than 100 µM, a GI50 (HCT-15 colon) of less than 10 nM and a TGI (HCT-15 colon) of 114 nM. It also gave a GI50 (OVCAR-4 ovarian) of less than 10 nM, a TGI (OVCAR-4 ovarian) of 46 nM and a GI50 (MDA-MB-435) of less than 10 nM. It also gave a TGI (MDA-MB-435) of 163 nM, a GI50 (MOLT-4 leukemia) of less than 10 nM and a TGI (MOLT-4 leukemia) greater than 100 µM. For the same compound, the GI50 (HS 578T breast) was less than 10 nM, the TGI (HS 578T breast) was less than 17.9 nM and the GI50 (SK-MEL-5 melanoma) was less than 10 nM. The TGI (SK-MEL-5 melanoma) was less than 11.9 nM, the GI50 (COLO 205 colon) was less than 10 nM and the TGI (COLO 205 colon) was less than 10 nM. For the same compound, the GI50 (BT-549 breast) was less than 10 nM, the TGI (BT-549 breast) was less than 10 nM and the GI50 (NCI-H226 lung) was less than 10 nM. The TGI (NCI-H226 lung) was 41 nM, the GI50 (OVCAR-8 ovarian) was less than 10 nM and the GI50 (MALME-3M melanoma) was less than 10 nM. For the same compound, the TGI (MALME-3M melanoma) was less than 10 nM, the GI50 (UO-31 renal) was less than 11.5 nM and the TGI (UO-31 renal) was 87.7 nM. The GI50 (SW-620 colon) was less than 10 nM, the GI50 (A498 renal) was less than 10 nM and the TGI (A498 renal) was 72.8 nM. The GI50 (MDA-MB-468 breast) was less than 10 nM, the TGI (MDA-MB-468 breast) was less than 10 nM and the GI50 (EKVX NSCLC) was less than 22.4 nM. The GI50 (HL-60(TB) leukemia) was less than 10 nM, the GI50 (RXF 393 renal) was less than 10 nM and the TGI (RXF 393 renal) was 25.7 nM. For the same compound, the GI50 (OVCAR-3 ovarian) was 25.9 nM, the TGI (OVCAR-3 ovarian) was 1170 nM and the GI50 (KM12 colon) was less than 10 nM. For the same compound, the TGI (KM12 colon) was 461 nM, the GI50 (ACHN renal) was 52.6 nM and the TGI (ACHN renal) was 904 nM. For the same compound, the GI50 (DU-145 prostate) was 38.8 nM, the GI50 (U251 CNS) was 39.4 nM and the TGI (U251 CNS) was greater than 100 µM. The GI50 (TK-10 renal) was less than 16.9 nM, the TGI (TK-10 renal) was 751 nM and the GI50 (HOP-62 NSCLC) was less than 10 nM. For the same compound, the TGI (HOP-62 NSCLC) was less than 32.1 nM, the GI50 (SF-295 CNS) was less than 10 nM and the TGI (SF-295 CNS) was 129 nM. It also gave a GI50 (IGROV1 ovarian) of less than 10 nM, a TGI (IGROV1 ovarian) of less than 15.7 nM and a GI50 (CAKI-1 renal) of less than 10 nM. For the same compound, the TGI (CAKI-1 renal) was 6.38 µM, the GI50 (NCI-H23 lung) was 88.6 nM and the TGI (NCI-H23 lung) was 3.99 µM. For the same compound, the GI50 (SK-MEL-28 melanoma) was less than 11.4 nM, the TGI (SK-MEL-28 melanoma) was 189 nM and the GI50 (SF-539 CNS) was less than 10.3 nM. For the same compound, the TGI (SF-539 CNS) was 114 nM, the GI50 (OVCAR-5 ovarian) was less than 10 nM and the TGI (OVCAR-5 ovarian) was 40.9 nM. The GI50 (SF-268 CNS) was less than 10 nM, the TGI (SF-268 CNS) was 260 nM and the GI50 (T-47D breast) was less than 10 nM. The TGI (T-47D breast) was less than 10 nM.
